Experimental data published in patent US20060153844A1, “Methods to trigger, maintain and manipulate immune responses by targeted administration of biological response modifiers into lymphoid organs” (priority 2004, published 2006).

Tests used:
[1] = system: p33-specific CD8+ T cells; assay: p33-specific CD8+ T cell function, intracellular interferon-γ by FACS, Imiquimod as adjuvant; format: in vivo, C57BL/6 mice; settings: 10 μg p33, day 8
Experimental: C57BL/6 mice were immunized with the immunodominant MHC class I binding epitope of the lymphocytic choriomeninigitis virus glycoprotein, p33 (SEQ. ID. No. 11). On day 8 after immunization mice were bled to analyze p33-specific CD8+ T cell function by FACS staining of CD8, CD44 and intracellular interferon-γ production after a 4-hour in vitro stimulation with p33. All groups of mice received the same dose of 10 μg p33. The adjuvant Imiquimod, however, was administered by different routes and in different doses. Mice were either injected intralymphatically with 250 μg or 25 μg of Imiquimod, or they were injected subcutaneously with 250 μg or 25 μg of Imiquimod. Control mice were immunized with p33, but received no Imiquimod.

[2] = including fatigue, malaise, fever, headache, and lymphocytopenia; cited from earlier work
[3] = system: IFN-gamma; assay: IFN-gamma in supernatants of restimulated splenocytes after s.c. peptide in IFA; format: in vivo, mice; settings: subcutaneous immunization in combination with IFA; compared to non-self PSMA 730-739
Experimental: Alternatively, mice were immunized with the PSMA 288-297 or PSMA 730-739 epitope peptide in IFA and peptide by subcutaneous injection (5 μg peptide in 100 μl, twice, at day 0 and 7). One week after the last administration, splenocytes were stimulated ex vivo with 5 μg (FIG. 7, top panel), 10 μg (FIG. 7, middle panel) and 20 μg/ml (FIG. 7, bottom panel) of peptide for 3 days and the IFN-gamma concentration in cell supernatants measured by ELISA.

| Molecule | induction of p33-specific CD8+ T cells ([1]; 250 μg Imiquimod intralymphatically) | induction of p33-specific CD8+ T cells ([1]; 250 μg Imiquimod subcutaneous) | toxicity when systemically administered [2] | immune responsiveness (IFN-gamma) [3] |
| --- | --- | --- | --- | --- |
| CC(C)Cn1cnc2c(N)nc3ccccc3c21 [Imiquimod, 1-(2-methylpropyl)-1H-imidazol [4,5-c]quinolin-4-amine] | enhanced induction of p33-specific CD8+ T cells | not after subcutaneous administration | significant toxicity when systemically administered |  |
| PSMA 288-297: SEQ. ID. No. 5, self epitope conserved between mouse and human (GLPSIPVHPI; Synthetically prepared peptide sequence) |  |  |  | decreased immune responsiveness |
